{"source": "patent US7776833B2", "about": "“Use of cyclic bioisosters of purine system derivatives for treating diseases produced by disorders of niterergic and dopaminergic systems” (priority 2003, dated 2010)", "format_in_all_cases": "in vivo, Wistar rats", "key": {"[1]": {"tested_on": "nitrites and nitrates (NOx-)", "assay": "Measurement of nitrates/nitrites (NOx-) in brain regions after the morphine abstinence experiment", "settings": "3 x 20 mg/kg intramuscularly", "procedure,_shortened": "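Rat brain regions homogenized in 20 mM HEPES pH 7.5 at 4 °C; deproteinized supernatants treated with nitrate reductase, 25 μM NADPH, 25 μM FAD (37 °C, 30 min), then DAN in acid; naphthotriazole fluorescence (ex 365/em 405 nm) against sodium nitrate standard, expressed as nmol/mg protein (Bradford).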"}, "[2]": {"tested_on": "physical dependence from morphine (morphine abstinence)", "assay": "Morphine abstinence syndrome, signs scored in the open field test", "settings": "Morphine − (morphine + compound); compound 3 x 20 mg/kg intramuscularly; one value for the three compounds"}, "[3]": {"tested_on": "nitric oxide synthase (NOS)", "assay": "Nitric oxide synthase activity in brain regions, radiometric [3H]L-citrulline method", "settings": "3 x 20 mg/kg intramuscularly", "procedure,_shortened": "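Rat cortex, hippocampus, mesencephalon, striatum, brainstem, hypothalamus and cerebellum were homogenized in 20 mM HEPES pH 7.5, and the 11000 g supernatant was incubated 15-60 min at 37 °C with [3H]L-arginine, 0.2 mM CaCl2, FAD, FMN, NADPH and BH4. [3H]L-citrulline was counted after Dowex removal of arginine. Ca2+-dependent/independent activity was split using EDTA ± L-NAME, per mg Bradford protein.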"}, "[4]": {"settings": "Groups Nos. 3-14, compound without morphine, one value for all 12 compounds"}, "[5]": {"settings": "Morphine + compound, one value for the three compounds"}}}
{"smiles": "O=c1[nH][nH]c(=O)c2ncncc12.[Li]", "note": "[Compound 35, lithium salt of pyrimido[4,5-d]-6H-pyridazine-5,8-dione]", "values": [{"measurement": "Nitrites, brainstem", "setting": "[1]; [4]", "value": "6.31 ± 0.58 nmol/mg of protein"}, {"measurement": "Nitrites, cerebellum", "setting": "[1]; [4]", "value": "6.66 ± 0.63 nmol/mg of protein"}, {"measurement": "Nitrites, cerebral cortex", "setting": "[1]; [4]", "value": "4.31 ± 0.37 nmol/mg of protein"}, {"measurement": "Nitrites, hippocampus", "setting": "[1]; [4]", "value": "6.47 ± 0.72 nmol/mg of protein"}, {"measurement": "Nitrites, hypothalamus", "setting": "[1]; [4]", "value": "6.77 ± 0.83 nmol/mg of protein"}, {"measurement": "Nitrites, midbrain", "setting": "[1]; [4]", "value": "6.65 ± 0.70 nmol/mg of protein"}, {"measurement": "Nitrites, striatum", "setting": "[1]; [4]", "value": "6.11 ± 0.29 nmol/mg of protein"}, {"measurement": "Nitrites, brainstem", "setting": "[1]; [5]", "value": "6.87 ± 0.81 nmol/mg of protein"}, {"measurement": "Nitrites, cerebellum", "setting": "[1]; [5]", "value": "5.93 ± 0.54 nmol/mg of protein"}, {"measurement": "Nitrites, cerebral cortex", "setting": "[1]; [5]", "value": "4.84 ± 0.31 nmol/mg of protein"}, {"measurement": "Nitrites, hippocampus", "setting": "[1]; [5]", "value": "5.31 ± 0.33 nmol/mg of protein"}, {"measurement": "Nitrites, hypothalamus", "setting": "[1]; [5]", "value": "6.77 ± 0.46 nmol/mg of protein"}, {"measurement": "Nitrites, midbrain", "setting": "[1]; [5]", "value": "5.95 ± 0.52 nmol/mg of protein"}, {"measurement": "Nitrites, striatum", "setting": "[1]; [5]", "value": "3.57 ± 0.42 nmol/mg of protein"}, {"measurement": "Authentic differences (ξ-square criterion) in appearance of signs of abstinence: <<Wet dog>> shakes", "setting": "[2]", "value": 1.0000}, {"measurement": "Authentic differences (ξ-square criterion) in appearance of signs of abstinence: Aggression", "setting": "[2]", "value": 0.8456}, {"measurement": "Authentic differences (ξ-square criterion) in appearance of signs of abstinence: Convulsions", "setting": "[2]", "value": 0.5578}, {"measurement": "Authentic differences (ξ-square criterion) in appearance of signs of abstinence: Diarrhea", "setting": "[2]", "value": 0.0001}, {"measurement": "Authentic differences (ξ-square criterion) in appearance of signs of abstinence: Dyspnea", "setting": "[2]", "value": 0.0685}, {"measurement": "Authentic differences (ξ-square criterion) in appearance of signs of abstinence: Forelimb jogging", "setting": "[2]", "value": 0.9321}, {"measurement": "Authentic differences (ξ-square criterion) in appearance of signs of abstinence: Grit with teeth", "setting": "[2]", "value": 0.7003}, {"measurement": "Authentic differences (ξ-square criterion) in appearance of signs of abstinence: Mastication", "setting": "[2]", "value": 0.1888}, {"measurement": "Authentic differences (ξ-square criterion) in appearance of signs of abstinence: Piloerection", "setting": "[2]", "value": 0.2345}, {"measurement": "Authentic differences (ξ-square criterion) in appearance of signs of abstinence: Ptosis", "setting": "[2]", "value": 0.0232}, {"measurement": "Authentic differences (ξ-square criterion) in appearance of signs of abstinence: Rhinorrhea", "setting": "[2]", "value": 0.2935}, {"measurement": "Authentic differences (ξ-square criterion) in appearance of signs of abstinence: Squeak when touched", "setting": "[2]", "value": 0.2035}, {"measurement": "Activity of NOS, hippocampus", "setting": "[3]; [4]", "value": "3.09 ± 0.16 nmol/min/mg of protein"}, {"measurement": "Activity of NOS, hypothalamus", "setting": "[3]; [4]", "value": "5.45 ± 0.24 nmol/min/mg of protein"}, {"measurement": "Activity of NOS, midbrain", "setting": "[3]; [4]", "value": "2.60 ± 0.29 nmol/min/mg of protein"}, {"measurement": "Activity of NOS, striatum", "setting": "[3]; [4]", "value": "1.26 ± 0.08 nmol/min/mg of protein"}, {"measurement": "Activity of NOS, hippocampus", "setting": "[3]; [5]", "value": "2.65 ± 0.15 nmol/min/mg of protein"}, {"measurement": "Activity of NOS, hypothalamus", "setting": "[3]; [5]", "value": "5.56 ± 0.34 nmol/min/mg of protein"}, {"measurement": "Activity of NOS, midbrain", "setting": "[3]; [5]", "value": "1.89 ± 0.27 nmol/min/mg of protein"}, {"measurement": "Activity of NOS, striatum", "setting": "[3]; [5]", "value": "1.34 ± 0.09 nmol/min/mg of protein"}]}
